# Assay results: patent US20020091124A1, “2-acyl indole derivatives and their use as antitumor agents” (priority 2000, published 2002)
# Where two headings read alike, the source gives them in different places.
# Assays:
# [1] = test system: human cervical carcinoma cell line KB/HeLa; assay: XTT cytotoxicity test, KB/HeLa; type: cell-based
# RKO p21 cells = assay: RKOp21 model, XTT assay; type: cell-based; conditions: Homo sapiens; Table 2; read-out: RKP p21 induced IC50
# Description: The model used for examining the cell cycle-specific action was the RKOp21 cell system (M. Schmidt et al. Oncogene19(20):2423-9, 2000). RKO is a human colon carcinoma line in which the cell cycle inhibitor p21^wafl is expressed induced by the ecdysone expression system and leads to an arrest of the cell cycle specifically in G1 and G2. Nonspecific substances inhibit proliferation independently of whether the RKO cell is arrested in G1 or G2 or not. In contrast, cell cycle-specific substances, such as, for example, tubulin inhibitors, are only cytotoxic if the cells are not arrested and the cell cycle is in progress. […] This underlines the arrest of the cell cycle in […] already found in the FACS analyses, and a cell cycle-specific action of the compounds tested.
# The assay is carried out in 96-well plates. […] Comparison of the activity on induced and non-induced cells allows conclusions to be drawn about the mechanism of action (cell cycle specificity) of the therapeutics. Non-induced [sic] cells are sown at a cell count which is about four times higher than that of non-induced cells since, compared to non-induced cells, there is no further division during the assay (2×10^4 cells/well induced, about 0.6×10^4 cells/well not induced). The controls are untreated cells (+/− induction). Induction is carried out using 3 μM of muristerone A. On day 1, the cells are plated (+/− muristerone A) and incubated at 37° C. for 24 h. On day 2, the test substance is added (control DMSO) and incubation at 37° C. is continued for another 48 h, after which a standard XTT assay is carried out.
# human melanoma MEXF 989 = assay: Human tumor xenograft MEXF 989 in naked mice; type: in vivo; conditions: MEXF 989, oral, 2 weeks, 5 administrations per week
# Description: (§1) For the in vivo experiments on naked mice, subcutaneously transplanted tumor fragments of the human melanoma MEXF 989 and/or the rhabdomyosarcoma SXF 463 were used. […]; Monday to Friday). […]. The cell lines included intestinal (2), stomach (1), lung (3), breast (2), melanoma (2), ovary (1), kidney (1) and uterus (1) tumor cell lines. […]. Emphasis is furthermore to be given to the oral bioavailability of the indole compounds according to the invention. […]
# rhabdomyosarcoma SXF 463 = assay: Human tumor xenograft SXF 463 in naked mice; type: in vivo; conditions: SXF 463, oral, 200 mg/kg, 2 weeks
# Description: as §1
# [2] = test system: 12 permanent human tumor cell lines; assay: Propidium iodide-based cytotoxicity assay; type: cell-based
# Description: (§2) . The cell lines included intestinal (2), stomach (1), lung (3), breast (2), melanoma (2), ovary (1), kidney (1) and uterus (1) tumor cell lines. […]. Emphasis is furthermore to be given to the oral bioavailability of the indole compounds according to the invention. […]
# [3] = Tolerability and oral administration in naked mice; type: in vivo
# Description: as §2
# rat glioma cell line C6 = assay: XTT cytotoxicity test, C6; conditions: 45 h, read-out: IC50 C6
# [4] = test system: human glioma cell line U118; assay: XTT cytotoxicity test, U118; conditions: 45 h, read-out: IC50 U118
# [5] = test system: human glioma cell line U373; assay: XTT cytotoxicity test, U373; conditions: U373 MG, 45 h, read-out: IC50 U373
# [6] = test system: human glioblastoma cell line U373; assay: Cell cycle analysis by FACS; conditions: U373, treated 24 h, FIG. 2
# [7] = test system: human glioma cell line A-172; assay: XTT cytotoxicity test, A-172; conditions: A 172, 45 h, read-out: IC50 A-172
smiles,measurement,setting,value
"COc1ccc2[nH]c(C(=O)c3ccccc3)cc2c1 [Example D-64131, 5-methoxy-1H-2-indolylphenyl-1-methanone]",IC50,"[1]; 45 h, read-out: IC50 KB/HeLa",24 nM
same,IC50,[1]; read-out: Zytotoxizität KB/HeLa IC50,24 nM
same,IC50,RKO p21 cells,15 nM
same,growth inhibition,human melanoma MEXF 989; 100 mg/kg/day,66%
same,growth inhibition,human melanoma MEXF 989; 200 mg/kg/day,81%
same,growth inhibition relative to the control,rhabdomyosarcoma SXF 463,83%
same,IC50,"[2]; 12 human tumor cell lines, read-out: average IC50 for all cell lines examined",340 nM
same,IC50,"[2]; lung and stomach tumor cell lines, read-out: IC50",~4000 nM
same,IC50,"[2]; melanoma, intestinal and kidney tumor cells, read-out: IC50",4 nM
same,oral bioavailability,[3]; concluded from oral activity,orally bioavailable
same,tolerated maximum dose,"[3]; intraperitoneal injection, administered weekly",400 mg/kg
same,tolerability,"[3]; p.o. 100 and 200 mg/kg, Qdx5 for 2 weeks",tolerated very well
same,IC50,rat glioma cell line C6,96.5 nM
same,IC50,[4],24 nM
same,IC50,[5],22 nM
same,cells in the metaphase of mitotic division (M-phase),[6],concentration-dependent arrest of the cells in mitosis
same,IC50,[7],51 nM
